Where two headings read alike, the source gives them in different places.
Experiments:
[1] = test system: MKL-1 cells (VP-MCC); assay: qHTS cell viability (CellTiter-Glo, 72 h; primary and follow-up small molecule screen); type: cell-based, human
[2] = test system: MCC cell lines (WAGA, MKL-1, MKL-2, MCC13, MCC26, UISO); assay: qHTS cell viability, all six MCC cell lines as a group (mean AUC, MCC.avg); type: cell-based, human
[3] = test system: HACAT cells; assay: qHTS cell viability (CellTiter-Glo, 72 h; primary screen), control cell line; type: cell-based, human
[4] = test system: VN-MCC cell lines (MCC13, MCC26, UISO); assay: qHTS cell viability, VN-MCC cell lines as a group (mean AUC, VN.MCC.avg); type: cell-based, human
[5] = test system: six MCC cell lines and four control cell lines; assay: qHTS cell viability, all 10 cell lines screened; type: cell-based
[6] = test system: HEK293T cells; assay: qHTS cell viability (CellTiter-Glo, 72 h; primary screen), control cell line; type: cell-based, human
[7] = test system: MCC26 cells (VN-MCC); assay: qHTS cell viability (CellTiter-Glo, 72 h; primary and follow-up small molecule screen); type: cell-based, human
[8] = test system: VP-MCC cell lines (WAGA, MKL-1, MKL-2); assay: qHTS cell viability, VP-MCC cell lines as a group (mean AUC, VP.MCC.avg); type: cell-based, human
[9] = test system: MKL-2 cells (VP-MCC); assay: qHTS cell viability (CellTiter-Glo, 72 h; primary and follow-up small molecule screen); type: cell-based, human
[10] = test system: WAGA cells (VP-MCC); assay: as above; type: cell-based, human
[11] = test system: control cell lines (HACAT, HEK293T, CRL-7250, NIH-3T3); assay: qHTS cell viability, control cell lines as a group (mean AUC, Control.avg); type: cell-based
[12] = test system: UISO cells (VN-MCC); assay: qHTS cell viability (CellTiter-Glo, 72 h; primary and follow-up small molecule screen); type: cell-based, human
[13] = test system: NIH-3T3 cells; assay: qHTS cell viability (CellTiter-Glo, 72 h; primary screen), control cell line; type: cell-based, mouse
[14] = test system: MCC13 cells (VN-MCC); assay: qHTS cell viability (CellTiter-Glo, 72 h; primary and follow-up small molecule screen); type: cell-based, human
[15] = test system: CRL-7250 cells; assay: qHTS cell viability (CellTiter-Glo, 72 h; primary screen), control cell line; type: cell-based
[16] = NPC library, qHTS dose-response AUC, MKL1
[17] = NPC library, mean AUC of six MCC cell lines
[18] = NPC library, qHTS dose-response AUC, HACAT control
[19] = area under the dose-response curve, HACAT control cells, AUC<450 = reduced viability
[20] = NPC library, mean AUC of VN-MCC cell lines
[21] = NPC library, therapeutic window: Control avg AUC minus VN-MCC avg AUC
[22] = NPC library, therapeutic window: Control avg AUC minus MCC avg AUC
[23] = NPC library, qHTS dose-response AUC, HEK293T control
[24] = area under the dose-response curve, HEK293T control cells, AUC<450 = reduced viability
[25] = NPC library, qHTS dose-response AUC, MCC26
[26] = area under the dose-response curve, MCC26 cells, AUC<450 = reduced viability
[27] = NPC library, mean AUC of VP-MCC cell lines
[28] = NPC library, therapeutic window: Control avg AUC minus VP-MCC avg AUC
[29] = NPC library, qHTS dose-response AUC, MKL2
[30] = area under the dose-response curve, MKL-2 cells, AUC<450 = reduced viability
[31] = NPC library, qHTS dose-response AUC, WAGA
[32] = area under the dose-response curve, WAGA cells, AUC<450 = reduced viability
[33] = NPC library, mean AUC of control cell lines
[34] = NPC library, qHTS dose-response AUC, UISO
[35] = area under the dose-response curve, UISO cells, AUC<450 = reduced viability
[36] = NPC library, qHTS dose-response AUC, NIH3T3 control
[37] = area under the dose-response curve, NIH3T3 control cells, AUC<450 = reduced viability
[38] = NPC library, qHTS dose-response AUC, MCC13
[39] = area under the dose-response curve, MCC13 cells, AUC<450 = reduced viability
[40] = NPC library, qHTS dose-response AUC, CRL7250 control
[41] = area under the dose-response curve, CRL7250 control cells, AUC<450 = reduced viability

## CC[N+](CC)(CC)CCOC(=O)C(C1CCCC1)C1CCCC1 [Diponium bromide]
[1]; [16]
  MKL1_AUC: 427.875
[1]; area under the dose-response curve, MKL-1 cells, AUC<450 = reduced viability
  MKL1_AUC: 427.875
[2]; [17]
  MCC_Avg_AUC: 464.549
[3]; [18]
  HACAT_AUC: 486.819
[3]; [19]
  HACAT_AUC: 486.819
[4]; [20]
  VN-MCC_Avg_AUC: 499.413
[4]; [21]
  Control-VN-MCC: -16.6818
[5]; [22]
  Control-MCC: 18.183
[6]; [23]
  HEK293T_AUC: 472.065
[6]; [24]
  HEK293T_AUC: 472.065
[7]; [25]
  MCC26_AUC: 499.996
[7]; [26]
  MCC26_AUC: 499.996
[8]; [27]
  VP-MCC_Avg_AUC: 429.684
[8]; [28]
  Control-VP-MCC: 53.0478
[9]; [29]
  MKL2_AUC: 434.115
[9]; [30]
  MKL2_AUC: 434.115
[10]; [31]
  WAGA_AUC: 427.062
[10]; [32]
  WAGA_AUC: 427.062
[11]; [33]
  Control_Avg_AUC: 482.732
[12]; [34]
  UISO_AUC: 475.444
[12]; [35]
  UISO_AUC: 475.444
[13]; [36]
  NIH3T3_AUC: 484.264
[13]; [37]
  NIH3T3_AUC: 484.264
[14]; [38]
  MCC13_AUC: 522.801
[14]; [39]
  MCC13_AUC: 522.801
[15]; [40]
  CRL7250_AUC: 487.778
[15]; [41]
  CRL7250_AUC: 487.778

## CN(C)C(=O)Nc1ccc(Cl)c(Cl)c1 [Diuron]
[1]
  Area under the dose-response curve (AUC) MKL-1 Replicate 1: 459.9
  Area under the dose-response curve (AUC) MKL-1 Replicate 2: 477.0
  Area under the dose-response curve (AUC) MKL-1 Replicate 3: 426.1
  MKL1_AUC: 165.013
[2]
  MCC_Avg_AUC: 327.57
[3]
  HACAT_AUC: 457.965
[4]
  Control-VN-MCC: 17.4511
  VN-MCC_Avg_AUC: 460.449
[5]
  Control-MCC: 150.329
[6]
  HEK293T_AUC: 497.019
[7]
  Area under the dose-response curve (AUC) MCC26 Replicate 1: 419.4
  Area under the dose-response curve (AUC) MCC26 Replicate 2: 420.5
  Area under the dose-response curve (AUC) MCC26 Replicate 3: 426.9
  MCC26_AUC: 462.009
[8]
  Control-VP-MCC: 283.207
  VP-MCC_Avg_AUC: 194.692
[9]
  Area under the dose-response curve (AUC) MKL-2 Replicate 1: 465.6
  Area under the dose-response curve (AUC) MKL-2 Replicate 2: 447.9
  Area under the dose-response curve (AUC) MKL-2 Replicate 3: 414.0
  MKL2_AUC: 290.674
[10]
  Area under the dose-response curve (AUC) WAGA Replicate 1: 487.4
  Area under the dose-response curve (AUC) WAGA Replicate 2: 506.5
  Area under the dose-response curve (AUC) WAGA Replicate 3: 435.9
  WAGA_AUC: 128.39
[11]
  Control_Avg_AUC: 477.9
[12]
  Area under the dose-response curve (AUC) UISO Replicate 1: 424.2
  Area under the dose-response curve (AUC) UISO Replicate 2: 442.5
  Area under the dose-response curve (AUC) UISO Replicate 3: 396.8
  UISO_AUC: 432.63
[13]
  NIH3T3_AUC: 473.572
[14]
  Area under the dose-response curve (AUC) MCC13 Replicate 1: 429.4
  Area under the dose-response curve (AUC) MCC13 Replicate 2: 471.6
  Area under the dose-response curve (AUC) MCC13 Replicate 3: 443.0
  MCC13_AUC: 486.707
[15]
  CRL7250_AUC: 483.042

## CC1=C(C)C(=O)C(CCCCC#CCCCC#CCO)=C(C)C1=O [Docebenone]
[1]; [16]
  MKL1_AUC: 419.228
[1]; {}
  MKL1_AUC: 419.228
[2]; [17]
  MCC_Avg_AUC: 426.453
[3]; [18]
  HACAT_AUC: 486.31
[3]; [19]
  HACAT_AUC: 486.31
[4]; [20]
  VN-MCC_Avg_AUC: 435.96
[4]; [21]
  Control-VN-MCC: 34.5201
[5]; [22]
  Control-MCC: 44.0275
[6]; [23]
  HEK293T_AUC: 450.348
[6]; [24]
  HEK293T_AUC: 450.348
[7]; [25]
  MCC26_AUC: 429.759
[7]; [26]
  MCC26_AUC: 429.759
[8]; [27]
  VP-MCC_Avg_AUC: 416.945
[8]; [28]
  Control-VP-MCC: 53.5349
[9]; [29]
  MKL2_AUC: 406.862
[9]; [30]
  MKL2_AUC: 406.862
[10]; [31]
  WAGA_AUC: 424.745
[10]; [32]
  WAGA_AUC: 424.745
[11]; [33]
  Control_Avg_AUC: 470.48
[12]; [34]
  UISO_AUC: 433.913
[12]; [35]
  UISO_AUC: 433.913
[13]; [36]
  NIH3T3_AUC: 455.144
[13]; [37]
  NIH3T3_AUC: 455.144
[14]; [38]
  MCC13_AUC: 444.208
[14]; [39]
  MCC13_AUC: 444.208
[15]; [40]
  CRL7250_AUC: 490.119
[15]; [41]
  CRL7250_AUC: 490.119

## CCCCCCCCCCCC[N+](C)(C)CCOc1ccccc1 [Domiphen bromide]
[1]
  MKL1_AUC: 361.63
[2]
  MCC_Avg_AUC: 384.634
[3]
  HACAT_AUC: 409.601
[4]
  Control-VN-MCC: 9.236
  VN-MCC_Avg_AUC: 417.789
[5]
  Control-MCC: 42.3914
[6]
  HEK293T_AUC: 413.225
[7]
  MCC26_AUC: 403.074
[8]
  Control-VP-MCC: 75.5464
  VP-MCC_Avg_AUC: 351.479
[9]
  MKL2_AUC: 321.555
[10]
  WAGA_AUC: 371.251
[11]
  Control_Avg_AUC: 427.025
[12]
  UISO_AUC: 370.326
[13]
  NIH3T3_AUC: 435.478
[14]
  MCC13_AUC: 479.965
[15]
  CRL7250_AUC: 449.796
